Measured values reported in US20240368133A1, “Compounds for the Treatment of Pain, in Particular, Neuropathic Pain, and/or Other Diseases or Disorders that are Associated with AT2R and/or AT2R Mediated Signaling” (Confo Therapeutics N.V., priority 2021, published 2024).

What was measured:
[1] = Caco-2 permeability assay; format: in vitro ADME; settings: human
Protocol: Caco-2 cells were cultured in 75 cm^2 flasks to 80-90% confluence according to the ATCC and Millipore recommendations (Arena A. et al., 2003) in humidified atmosphere at 37° C. and 5% CO2. Cells were detached with Trypsin/EDTA solution and resuspended in the cell culture medium to a final concentration of 2×10^5 cells/ml. 500 μl of the cell suspension was added to each well of HTS 24-Multiwell Insert System and 1000 μl of prewarmed complete medium was added to each well of the feeder-plate. Caco-2 cells were incubated in Multiwell Insert System for 21 days before the transport experiments. The medium in filter plate and feeder tray was refreshed every other day. After 21 days of the cell growth, the integrity of the monolayer was verified by measuring the transepithelial electrical resistance (TEER) for every well using the Millicell-ERS system ohm meter. The final TEER values were within the range 150-600 Ω×cm^2 (Srinivasan B. et al., 2015) as required for the assay conditions. 24-well insert plate was removed from its feeder plate and placed in a new sterile 24-well transport analysis plate. The inserts were washed with PBS after medium aspiration. To determine the rate of compounds transport in apical (A)-to-basolateral (B) direction, 300 μL of the test compound dissolved in transport buffer at 10 μM (HBSS, 25 mM HEPES, pH=7.4) was added into the filter wells; 1000 μL of buffer (HBSS, 25 mM HEPES, pH=7.4) was added to transport analysis plate wells. Propranolol, Atenolol, Quinidine and Digoxin were used as reference compounds. The plates were incubated for 90 min at 37° C. under continuous shaking at 50 rpm. 75 μL aliquots were taken from the donor and receiver compartments for LC-MS/MS analysis. All samples were mixed with 2 volumes of acetonitrile followed by protein sedimentation by centrifuging at 10000 rpm for 10 minutes. Supernatants were analyzed using the HPLC system coupled with tandem mass spectrometer. The apparent permeability (Papp) was calculated for Caco-2 permeability assay using the following equation:
• VA=volume of transport buffer in acceptor well • Area=surface area of the insert (equals to effective growth area of the insert −0.31 sq.cm) • Time=time of the assay • [drug]acc=concentration of test compound in acceptor well • [drug]initial,d=initial concentration of test compound in a donor well • Papp is expressed in 10^−6 cm/sec.
The % recovery can be useful in interpreting the Caco-2 data. If the recovery is very low, this may indicate poor solubility, binding of the compound to the test plate materials, metabolism by the Caco-2 cells, or accumulation of the compound in the cell monolayer. The % recovery was calculated using the following equation:
• Vacc=volume of compound solution in acceptor well […] • Vd=volume of compound solution in […] • Cacc=concentration of test compound in acceptor well (μM) • Cinitial,d=initial concentration of test compound in a donor well (μM)

[2] = Caco-2 permeability assay; format: in vitro ADME; settings: human, pH 7.4; Caco-2, BA
human AT1R = human AT1R (Homo sapiens (Human), UniProt P30556); assay: Counterscreen radioligand binding assay, displacement of 125I-[Sar1, Ile8]-Angiotensin II, hAT1R WT; settings: 125I-[Sar1, Ile8]-Ang II, semi-quantitative score
Method in brief: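 Compounds displaced 0.05 nM 125I-[Sar1, Ile8]-Ang II from human AT1R in HEK-293 membranes (1 h, 25° C; Tris/MgCl2/EDTA/BSA buffer, pH 7.4). Readout was filtration and scintillation counting, with non-specific binding set by 10 μM [Sar1]-Ang II. Values are % displacement at 1 μM and […], or IC50 from eight-point four-parameter fits.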

human AT2R fused to Cb23 = human AT2R fused to Cb23 (Homo sapiens, UniProt P50052); assay: Radioligand binding assay, displacement of 125I-[Sar1, Ile8]-Angiotensin II, hAT2R Cb23; settings: displacement of 125I-[Sar1, Ile8]-Angiotensin II, human AT2R fused to Cb23, HEK-293 cell membrane preparations; read-out: Binding affinity on hAT2R_Cb23 IC50
Method in brief: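 Membranes from HEK-293 cells expressing human AT2R fused to Cb23 were incubated with 0.05 nM 125I-[Sar1, Ile8]-Angiotensin II in 100 μL buffer (50 mM Tris, 5 mM MgCl2, 1 mM EDTA, 0.1% BSA, pH 7.4) for one hour at 25° C. Ligands were tested as eight-point dose-response curves in duplicate, with C21 and Angiotensin II as references.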

Chain of human AT1R (P30556 whole entry): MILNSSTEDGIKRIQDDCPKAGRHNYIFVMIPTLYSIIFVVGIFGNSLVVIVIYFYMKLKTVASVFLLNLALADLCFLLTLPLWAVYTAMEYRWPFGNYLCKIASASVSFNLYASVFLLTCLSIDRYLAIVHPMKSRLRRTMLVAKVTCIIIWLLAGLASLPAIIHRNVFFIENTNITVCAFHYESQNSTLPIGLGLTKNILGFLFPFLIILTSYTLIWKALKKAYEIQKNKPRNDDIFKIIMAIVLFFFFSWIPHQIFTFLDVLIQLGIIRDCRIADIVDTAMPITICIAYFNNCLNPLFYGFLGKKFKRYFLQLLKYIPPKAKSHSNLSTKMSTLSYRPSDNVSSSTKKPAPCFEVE
Chain of human AT2R fused to Cb23 (P50052 whole entry, looked up, the tested form may be a part): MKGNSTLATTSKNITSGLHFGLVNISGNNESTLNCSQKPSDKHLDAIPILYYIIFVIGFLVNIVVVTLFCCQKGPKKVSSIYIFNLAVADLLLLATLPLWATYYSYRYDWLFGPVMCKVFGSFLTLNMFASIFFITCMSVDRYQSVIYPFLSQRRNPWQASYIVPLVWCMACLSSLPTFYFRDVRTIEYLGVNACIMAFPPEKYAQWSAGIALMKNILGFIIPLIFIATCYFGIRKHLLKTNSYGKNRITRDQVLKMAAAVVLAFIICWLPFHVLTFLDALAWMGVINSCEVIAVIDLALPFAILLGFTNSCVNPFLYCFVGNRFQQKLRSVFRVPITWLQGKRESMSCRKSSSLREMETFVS

Question: For `CCc1cc(CC(C)C)cc(N2CCN(Cc3cccnn3)CC2)c1-c1nn[nH]n1` [Compound A-168], which efflux ratio at 90 min, 10 µM ([1]; Caco-2, pH 7.4) is on record?
Answer: 11.3

Question: What about the recovery at 90 min, 10 µM ([1]; Caco-2, pH 7.4) of the same molecule?
Answer: 97%

Question: What about the Papp A→B at 90 min, 10 µM ([1]; pH 7.4, Caco-2, AB) of the same molecule?
Answer: 13 nm/s

Question: What about the Papp B→A at 90 min, 10 µM [2] of the same molecule?
Answer: 147 nm/s

Question: What about the inhibition at 1 µM (human AT1R; compound at 1 μM, read-out: % Displaced radioligand at 1 μM) of the same molecule?
Answer: < 30%

Question: What about the inhibition at 10 µM (human AT1R; compound at 10 μM, read-out: % Displaced radioligand at 10 μM) of the same molecule?
Answer: < 30%

Question: What about the IC50 (human AT2R fused to Cb23) of the same molecule?
Answer: 0.0177 µM
